According to the NIST ThermoML archive (doi:10.1021/acs.jced.8b00547):

Columns and labels:
[1] = xn = mol fraction of the nth substance listed; conditions: 101 kPa, Liquid; for speed of sound: Single path-length method; for mass density: Vibrating tube method
[2] = refractive index (Na D-line) (dimensionless); xn = mol fraction of the nth substance listed; conditions: 101 kPa, Liquid, Standard Abbe refractometry

CCCC(C)=O [pentan-2-one] + CCC(C)O
Conditions	mass density, [1] [kg/m3]	refractive index, [2]	speed of sound, [1] [m/s]
298.15 K, x1 = 0.1227	801.36	1.39423	1212.6
298.15 K, x1 = 0.2361	800.45	1.39353	1213.1
298.15 K, x1 = 0.3467	800.01	1.3928	1213.5
298.15 K, x1 = 0.4522	799.88	1.39205	1214
298.15 K, x1 = 0.5521	799.79	1.39133	1214.3
298.15 K, x1 = 0.6518	799.88	1.39059	1214.7
298.15 K, x1 = 0.744	800.22	1.38988	1215.1
298.15 K, x1 = 0.8299	800.65	1.38922	1215.4
298.15 K, x1 = 0.919	801.23	1.38853	1215.7
298.15 K, x1 = 1	802.09	1.38782	1216
308.15 K, x1 = 0.1227	792.32	1.38958	1175.7
308.15 K, x1 = 0.2361	791.24	1.38887	1175.5
308.15 K, x1 = 0.3467	790.78	1.38809	1175.4
308.15 K, x1 = 0.4522	790.51	1.38731	1175.3
308.15 K, x1 = 0.5521	790.25	1.38655	1175.2
308.15 K, x1 = 0.6518	790.23	1.38577	1175
308.15 K, x1 = 0.744	790.31	1.38503	1174.9
308.15 K, x1 = 0.8299	790.62	1.38434	1174.7
308.15 K, x1 = 0.919	791.25	1.38358	1174.6
308.15 K, x1 = 1	792.32	1.38284	1174.4
318.15 K, x1 = 0.1227	783.39	1.38489	1138.5
318.15 K, x1 = 0.2361	782.07	1.38415	1137.9
318.15 K, x1 = 0.3467	781.42	1.38335	1137.2
318.15 K, x1 = 0.4522	780.93	1.38254	1136.6
318.15 K, x1 = 0.5521	780.55	1.38177	1136.1
318.15 K, x1 = 0.6518	780.41	1.38095	1135.5
318.15 K, x1 = 0.744	780.42	1.38018	1134.9
318.15 K, x1 = 0.8299	780.73	1.37943	1134.4
318.15 K, x1 = 0.919	781.32	1.3786	1133.8
318.15 K, x1 = 1	782.44	1.37782	1133.3
328.15 K, x1 = 0.1227	773.65	1.37968	1101
328.15 K, x1 = 0.2361	772.15	1.37897	1100.1
328.15 K, x1 = 0.3467	771.4	1.37819	1099.2
328.15 K, x1 = 0.4522	770.91	1.3774	1098.3
328.15 K, x1 = 0.5521	770.35	1.37666	1097.5
328.15 K, x1 = 0.6518	770.02	1.37589	1096.6
328.15 K, x1 = 0.744	770.12	1.37513	1095.8
328.15 K, x1 = 0.8299	770.56	1.37437	1095.1
328.15 K, x1 = 0.919	771.22	1.37356	1094.3
328.15 K, x1 = 1	772.43	1.3728	1093.6
338.15 K, x1 = 0.1227	763.26	1.37559	1063
338.15 K, x1 = 0.2361	761.48	1.37472	1061.8
338.15 K, x1 = 0.3467	760.59	1.37383	1060.7
338.15 K, x1 = 0.4522	760.08	1.37293	1059.6
338.15 K, x1 = 0.5521	759.46	1.37206	1058.6
338.15 K, x1 = 0.6518	759.14	1.37116	1057.6
338.15 K, x1 = 0.744	759.29	1.37027	1056.6
338.15 K, x1 = 0.8299	759.87	1.36944	1055.7
338.15 K, x1 = 0.919	760.73	1.36852	1054.8
338.15 K, x1 = 1	762.27	1.36764	1053.8
